Laboratory results reported in patent US20130053430A1, “MODULATION OF CETP EXPRESSION” (Isis Pharmaceuticals, Inc., priority 2010, published 2013).
e = 2'-O-(2-methoxyethyl) (MOE); d = 2'-deoxy (DNA)

How the values were obtained:
SR-B1 = experiment: Liver SR-B1 mRNA expression (Example 9); type: in vivo, mice; conditions: s.c. 6 weeks; for Percent inhibition of liver mRNA expression, SR-B1: percentage increase or decrease compared to PBS control
Experimental: (§1) Another group received subcutaneous injections of control oligonucleotide ISIS 141923 at a dose of 50 mg/kg/week for 6 weeks. One group of mice received subcutaneous injections of PBS for 6 weeks. The PBS-injected group served as the control group to which treatment groups were compared.
Liver RNA was isolated for real-time PCR analysis of ABCA1, ApoAI, and SR-B1. ATP-binding cassette transporter ABCA1 (member 1 of human transporter sub-family ABCA), also known as the cholesterol efflux regulatory protein (CERP) is a protein which in humans is encoded by the ABCA1 gene (Luciani, M. F. et al., Genomics. 1994. 21: 150-9). This transporter is a major regulator of cellular cholesterol and phospholipid homeostasis. Apolipoprotein A-I is a protein that in humans is encoded by the APOA1 gene (Breslow, J. L. et al., Proc. Natl. Acad. Sci. USA 1982. 79: 6861-5). Apolipoprotein A-I is the major protein component of HDL in plasma. The protein promotes cholesterol efflux from tissues to the liver for excretion. Scavenger receptor class B, type I (SR-BI) is an integral membrane protein found in numerous cell types/tissues, including the liver and adrenal (Acton, S. L. et al., J. Biol. Chem. 1994. 269: 21003-21009). It is best known for its role in facilitating the uptake of cholesteryl esters from high-density lipoproteins in the liver. Therefore, all three genes have a role in HDL regulation.
The primer probe set RTS1204 (forward sequence […], designated herein as SEQ ID NO: 122, reverse sequence […], designated herein as SEQ ID NO: 123, probe sequence AGGCCCAGACCTGTAAAGGCGAAGX, with X a fluorophore, designated herein as SEQ ID NO: 124) was used to measure abca1 levels. The primer probe set RTS14737 (forward sequence […], designated herein as SEQ ID NO: 125, reverse sequence […], designated herein as SEQ ID NO: 126, probe sequence CTGCAGGAACGGCTGGGCCCX, with X a fluorophore, designated herein as SEQ ID NO: 127) was used to measure apoA1 levels. The primer probe set mSRB-1 (forward sequence […], designated herein as SEQ ID NO: 128, reverse sequence ATGCGACTTGTCAGGCTGG, designated herein as SEQ ID NO: 129, probe sequence CGTGGAGAACCGCAGCCTCCATTX, with X a fluorophore, designated herein as SEQ ID NO: 130) was used to measure sr-b1 levels. The results are presented in Table 44 as percentage increase or decrease in the respective expression levels compared to the PBS control. Both primer probe sets produced similar results. The RNA expression levels were normalized to murine Cyclophilin. Treatment with ISIS 349517 caused an increase in ApoA1 and SR-B1 levels.

[1] = Plasma glucose, dose response (Example 9); type: in vivo, mice
Experimental: as §1
Plasma glucose values were determined using a Beckman Glucose Analyzer II (Beckman Coulter) by a glucose oxidase method (Lott, J. A. et al., Clin. Chem. 21: 1754-1760, 1975).

human CETP mRNA = experiment: Antisense inhibition of human CETP mRNA in SW872 liposarcoma cells (Example 1); type: cell-based; conditions: 150 nM antisense oligonucleotide, lipofectin, ~24 hours, relative to untreated control cells
Outline: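 SW872 cells transfected (lipofectin) with 150 nM 5-10-5 MOE gapmer (phosphorothioate, 5-methylcytosine). After about 24 h, CETP mRNA measured by qRT-PCR, normalized to GAPDH; values are % inhibition versus untreated cells.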

CETP protein = experiment: Plasma CETP protein by ELISA, normal or cholesterol-enriched chow (Example 6); type: in vivo, human; conditions: 50 mg/kg s.c. twice per week
Experimental: The normal chow-fed mice were divided into three treatment groups. The cholesterol-enriched chow-fed mice were divided into three treatment groups. […] One chow-fed group and one cholesterol-enriched chow-fed group received subcutaneous injections of saline twice weekly for 6 weeks. The saline-injected groups served as the control groups to which the corresponding oligonucleotide-treated groups were compared.
Plasma levels of CETP protein were measured by ELISA (Alpco, N.H.). […] The results are expressed as percentage inhibition compared to the PBS control.

Substance | Percent inhibition of liver mRNA expression, SR-B1 (SR-B1; Dose 50 mg/kg/wk) | Glucose levels ([1]; 50 mg/kg/wk, Week 0) [mg/dL] | Glucose levels ([1]; 50 mg/kg/wk, Week 3) [mg/dL] | Glucose levels ([1]; 50 mg/kg/wk, Week 6) [mg/dL] | % inhibition (human CETP mRNA) [%] | Percent inhibition of plasma CETP protein levels (CETP protein; Cholesterol chow, Week 3) [%] | Percent inhibition of plasma CETP protein levels (CETP protein; Cholesterol chow, Week 6) [%] | Percent inhibition of plasma CETP protein levels (CETP protein; Normal chow, Week 3) [%] | Percent inhibition of plasma CETP protein levels (CETP protein; Normal chow, Week 6) [%] | other results
ISIS 141923: CCTTCCCTGAAGGTTCCTCC, 5-10-5 MOE gapmer, a control oligonucleotide which has no known murine target (sugars from the 5' end e5 d10 e5, backbone and methylation of C not given here) [reference compound] | +37% | 311 | 256 | 305 | – | – | – | – | – | –
ISIS 349511: 5-10-5 MOE gapmer CCCGACCTCCTTGGAGACTT (sugars from the 5' end e5 d10 e5, backbone and methylation of C not given here) | – | – | – | – | 66 | 89 | 85 | 81 | 85 | –
ISIS 349517: 5-10-5 MOE gapmer CAGCACTTTAATGCCAGTGG (sugars from the 5' end e5 d10 e5, backbone and methylation of C not given here) | +42% | 339 | 269 | 255 | 100 | 97 | 96 | 95 | 91 | SR-B1 levels (liver mRNA) (SR-B1; huCETP transgenic mice, Western diet): increase; Percent inhibition of liver mRNA expression, SR-B1 (SR-B1; Dose 1.5 mg/kg/wk): +33%; Percent inhibition of liver mRNA expression, SR-B1 (SR-B1; Dose 5 mg/kg/wk): +34%; Percent inhibition of liver mRNA expression, SR-B1 (SR-B1; Dose 15 mg/kg/wk): +50%; Glucose levels ([1]; 1.5 mg/kg/wk, Week 0): 375 mg/dL; Glucose levels ([1]; 1.5 mg/kg/wk, Week 3): 288 mg/dL; Glucose levels ([1]; 1.5 mg/kg/wk, Week 6): 348 mg/dL; Glucose levels ([1]; 5 mg/kg/wk, Week 0): 354 mg/dL; Glucose levels ([1]; 5 mg/kg/wk, Week 3): 287 mg/dL; Glucose levels ([1]; 5 mg/kg/wk, Week 6): 346 mg/dL; Glucose levels ([1]; 15 mg/kg/wk, Week 0): 339 mg/dL; Glucose levels ([1]; 15 mg/kg/wk, Week 3): 271 mg/dL; Glucose levels ([1]; 15 mg/kg/wk, Week 6): 329 mg/dL
